Results from ChEMBL document CHEMBL1201862, “PubChem BioAssay data set” (2004).
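Five concentrations, 48 hours, 96-well plates. GI50 = concentration required for 50% inhibition of growth.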 Calls of active or inactive are those of the source. Cut-off read from the data, not from the text of the source: active = GI50 up to about 1.1 µM and inactive = higher.

Tests used:
Assay in all cases: DTP human tumour cell line panel, 48 h
A498 = test system: A498
SK-OV-3 = test system: SK-OV-3
CCRF-CEM = test system: CCRF-CEM
SR = test system: SR
HCC 2998 = test system: HCC 2998
NCI-H460 = test system: NCI-H460
TK-10 = test system: TK-10
IGROV-1 = test system: IGROV-1
HT-29 = test system: HT-29
A549 = test system: A549
RPMI-8226 = test system: RPMI-8226
UACC-62 = test system: UACC-62
UACC-257 = test system: UACC-257
T47D = test system: T47D
786-0 = test system: 786-0
NCI/ADR-RES = test system: NCI/ADR-RES
CAKI-1 = test system: CAKI-1
MDA-MB-231 = test system: MDA-MB-231

Measured: GI50

Cc1nc2c(sc(=S)n2-c2ccccc2)c(=O)[nH]1
inactive: A498 > 100 µM | SK-OV-3 > 100 µM | CCRF-CEM > 100 µM | SR > 100 µM | HCC 2998 > 100 µM | NCI-H460 > 100 µM | TK-10 > 100 µM | IGROV-1 > 100 µM | HT-29 > 100 µM | A549 > 100 µM | RPMI-8226 > 100 µM | UACC-62 > 100 µM | UACC-257 > 100 µM

Cc1cc(NC(=S)SCc2ccc(F)cc2)c([N+](=O)[O-])cc1C
inactive: SK-OV-3 32.3 µM | SR 20.3 µM | NCI-H460 36.7 µM | T47D 48.8 µM | TK-10 24.2 µM | 786-0 33.3 µM | NCI/ADR-RES 25.8 µM | HT-29 13.6 µM | A549 27.7 µM | CAKI-1 47.2 µM | UACC-62 15 µM | UACC-257 21 µM | MDA-MB-231 14.6 µM

CC(=O)OCC1OC(N2C(=O)NC(=O)C3C=C4CCCCC4=CC32)C(OC(C)=O)C1OC(C)=O (stereo not drawn)
inactive: A498 > 100 µM | SK-OV-3 > 100 µM | CCRF-CEM > 100 µM | SR > 100 µM | HCC 2998 > 100 µM | NCI-H460 > 100 µM | T47D > 100 µM | TK-10 > 100 µM | IGROV-1 > 100 µM | A549 > 100 µM | RPMI-8226 > 100 µM | CAKI-1 > 100 µM | UACC-62 > 100 µM | UACC-257 > 100 µM | MDA-MB-231 > 100 µM

CCOC(=O)CCSS(=O)(=O)C(F)(F)F
inactive: A498 > 100 µM | SK-OV-3 > 100 µM | CCRF-CEM > 100 µM | HCC 2998 > 100 µM | NCI-H460 > 100 µM | T47D > 100 µM | TK-10 > 100 µM | 786-0 > 100 µM | NCI/ADR-RES > 100 µM | IGROV-1 > 100 µM | A549 > 100 µM | RPMI-8226 > 100 µM | CAKI-1 > 100 µM | UACC-62 > 100 µM | UACC-257 > 100 µM

O=C(O)c1cnc2c(ccc3ncc(C(=O)O)c(O)c32)c1O
inactive: A498 > 100 µM | SK-OV-3 > 100 µM | SR > 100 µM | NCI-H460 > 100 µM | T47D > 100 µM | TK-10 > 100 µM | 786-0 > 100 µM | NCI/ADR-RES > 100 µM | IGROV-1 > 100 µM | HT-29 > 100 µM | A549 > 100 µM | RPMI-8226 > 100 µM | CAKI-1 > 100 µM | UACC-62 > 100 µM | UACC-257 > 100 µM | MDA-MB-231 > 100 µM

COC(=O)C(C(=O)OC)C1CC(=O)c2c(Br)sc(Br)c21 (stereo not drawn)
inactive: A498 31.5 µM | SK-OV-3 17.9 µM | CCRF-CEM 4.03 µM | SR 12.5 µM | HCC 2998 14.3 µM | NCI-H460 18.6 µM | T47D 28.6 µM | TK-10 31.5 µM | 786-0 26.1 µM | NCI/ADR-RES 16.8 µM | IGROV-1 14.1 µM | HT-29 15.4 µM | A549 25 µM | RPMI-8226 11.5 µM | CAKI-1 9.06 µM | UACC-62 13.5 µM | UACC-257 22 µM

O=C(O)C1(C(O)c2ccccc2)SCCCS1 (stereo not drawn)
inactive: A498 > 10 µM | SK-OV-3 > 10 µM | CCRF-CEM > 10 µM | SR > 10 µM | NCI-H460 > 10 µM | T47D > 10 µM | TK-10 > 10 µM | 786-0 > 10 µM | IGROV-1 > 10 µM | HT-29 > 10 µM | A549 > 10 µM | UACC-62 > 10 µM | UACC-257 > 10 µM | MDA-MB-231 > 10 µM

c1ccc(C(NC2=NCCO2)C2CC2)cc1 (stereo not drawn)
inactive: A498 93.1 µM | SK-OV-3 > 100 µM | SR > 100 µM | HCC 2998 > 100 µM | NCI-H460 75.2 µM | T47D > 100 µM | TK-10 > 100 µM | 786-0 > 100 µM | NCI/ADR-RES > 100 µM | IGROV-1 > 100 µM | HT-29 58.1 µM | A549 > 100 µM | RPMI-8226 > 100 µM | UACC-62 > 100 µM | UACC-257 > 100 µM | MDA-MB-231 > 100 µM

Oc1ccc(-c2nc3cc(C(F)(F)F)ccc3s2)cc1
inactive: A498 18.2 µM | SK-OV-3 26 µM | CCRF-CEM 12.2 µM | SR 15.8 µM | NCI-H460 15.4 µM | TK-10 18.8 µM | NCI/ADR-RES 20 µM | IGROV-1 11.2 µM | HT-29 18.9 µM | A549 15.4 µM | RPMI-8226 16.7 µM | CAKI-1 15.7 µM | UACC-62 13.9 µM | UACC-257 18 µM | MDA-MB-231 14.2 µM

COC(=O)[C@@H]1O[C@]12[C@@H](CO[Si](C)(C)C(C)(C)C)O[C@@H](n1cc(C)c(=O)[nH]c1=O)[C@@H]2O[Si](C)(C)C(C)(C)C
inactive: SK-OV-3 32.6 µM | CCRF-CEM 2.39 µM | NCI-H460 11.6 µM | T47D 6.31 µM | TK-10 45 µM | NCI/ADR-RES 13.6 µM | IGROV-1 5.64 µM | HT-29 6.11 µM | A549 25.5 µM | CAKI-1 23.4 µM | UACC-62 17.9 µM | UACC-257 22.4 µM | MDA-MB-231 19.9 µM

C=C(C)C(=O)[C@@]12C(=O)[C@@H](C)CC[C@H]1[C@H](C)C[C@@H]2C=C(C)C
inactive: A498 52.4 µM | SK-OV-3 37 µM | CCRF-CEM 23.1 µM | SR > 10 µM | HCC 2998 14.8 µM | TK-10 47.6 µM | 786-0 20.1 µM | NCI/ADR-RES 27.8 µM | IGROV-1 27.5 µM | HT-29 14.6 µM | A549 32.7 µM | RPMI-8226 27.9 µM | CAKI-1 29.4 µM | UACC-62 22.9 µM | UACC-257 15.2 µM | MDA-MB-231 21.9 µM

O=[N+]([O-])c1ccc(-c2nc3cc([N+](=O)[O-])ccc3[nH]2)cc1
inactive: SK-OV-3 34.1 µM | SR 29 µM | HCC 2998 50.2 µM | NCI-H460 22 µM | T47D 15.5 µM | TK-10 52.2 µM | 786-0 32.1 µM | NCI/ADR-RES 17.6 µM | IGROV-1 30.5 µM | HT-29 28.4 µM | A549 15.1 µM | RPMI-8226 13.7 µM | CAKI-1 32.7 µM | UACC-62 37 µM | UACC-257 31 µM

Cc1cc(C)c(S(=O)(=O)N(CCCCN)OCCCN)c(C)c1
inactive: SK-OV-3 16.8 µM | CCRF-CEM 15.7 µM | SR 9.59 µM | HCC 2998 2.28 µM | NCI-H460 19 µM | T47D 18.2 µM | TK-10 18 µM | NCI/ADR-RES 20.7 µM | IGROV-1 13.6 µM | HT-29 14.3 µM | A549 19.3 µM | RPMI-8226 8.04 µM | CAKI-1 17.4 µM | UACC-62 16.4 µM | UACC-257 16.2 µM
